Target: T1, Follicle Stimulating Hormone Receptor (FSHR) (Homo sapiens, UniProt P23945)
T1 construct: HA (N); expressed in transfected cells; host or cells: CHO-K1, transient transfection, pHM6 vector (CMV promoter)
T1 sequence (P23945 18-695): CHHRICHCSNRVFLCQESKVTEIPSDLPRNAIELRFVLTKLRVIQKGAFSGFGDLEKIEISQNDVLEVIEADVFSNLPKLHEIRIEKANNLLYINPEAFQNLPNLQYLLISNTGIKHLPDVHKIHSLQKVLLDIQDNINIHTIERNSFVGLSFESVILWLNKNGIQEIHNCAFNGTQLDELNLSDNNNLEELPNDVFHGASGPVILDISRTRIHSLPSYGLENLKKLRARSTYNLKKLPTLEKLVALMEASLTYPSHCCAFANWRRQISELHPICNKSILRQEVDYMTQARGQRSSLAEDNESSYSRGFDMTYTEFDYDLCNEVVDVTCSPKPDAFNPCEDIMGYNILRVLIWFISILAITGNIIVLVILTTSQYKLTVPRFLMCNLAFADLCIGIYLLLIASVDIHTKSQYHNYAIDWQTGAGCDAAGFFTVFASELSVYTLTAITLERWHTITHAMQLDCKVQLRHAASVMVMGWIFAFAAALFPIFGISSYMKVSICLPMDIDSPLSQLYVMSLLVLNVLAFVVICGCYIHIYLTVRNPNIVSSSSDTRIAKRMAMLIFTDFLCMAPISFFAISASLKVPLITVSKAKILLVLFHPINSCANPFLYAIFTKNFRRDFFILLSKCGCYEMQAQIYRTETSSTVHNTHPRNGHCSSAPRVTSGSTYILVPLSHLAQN
Assay: HTRF cAMP agonist assay, FSHR, transiently transfected CHO-K1 cells
Type: cell-based
Settings: CHO-K1 cells transiently expressing human FSHR, read-out: IC50 FSHR LANCE CAMP

| Compound | IC50 [nM] |
| --- | --- |
| COc1cc2c(cc1-c1cncc(C(N)=O)c1)-c1c(c(C(=O)N3CCN(C(C)C)CC3(C)C)nn1-c1cc(Cl)cc(Cl)c1)CC2 [Compound 8-61, 5-(1-(3,5-dichlorophenyl)-3-(4-isopropyl-2,2-dimethylpiperazine-1-carbonyl)-7-methoxy-4,5-dihydro-1H-benzo[g]indazol-8-yl)nicotinamide] | 192 |
| COc1cc2c(cc1-c1cncc(C(N)=O)c1)-c1c(c(CN3CCOCC3(C)C)nn1-c1cc(Cl)cc(Cl)c1)CC2 [Compound 9-06] | 0.976 |
| COc1cc2c(cc1-c1ccncc1)-c1c(c(C(=O)N3CCOCC3(C)C)nn1-c1cc(F)cc(F)c1)CC2 [Compound 15-09, [1-(3,5-difluorophenyl)-7-methoxy-8-(4-pyridyl)-4,5-dihydrobenzo[g]indazol-3-yl]-(3,3-dimethylmorpholin-4-yl)methanone] | 370 |
| COc1cc2c(cc1-c1cncc(C(N)=O)c1)-c1c(c(C(=O)N3CCN(C4CC4)CC3(C)C)nn1-c1cc(Cl)cc(Cl)c1)CC2 [Compound 8-62] | 122 |
| COc1cc2c(cc1-c1cncc(C(N)=O)c1)-c1c(c(C(=O)N3CCN(CCC(=O)O)CC3(C)C)nn1-c1cc(Cl)cc(Cl)c1)CC2 [Compound 8-65] | 1320 |
| COc1cc2c(cc1-c1cncc(C(N)=O)c1)-c1c(c(C(=O)N3CCNC(=O)C3(C)C)nn1-c1ccsc1)CC2 [Compound 12-23, 5-[3-(2,2-dimethyl-3-oxo-piperazine-1-carbonyl)-7-methoxy-1-(3-thienyl)-4,5-dihydrobenzo[g]indazol-8-yl]pyridine-3-carboxamide] | 36.7 |
| COc1cc2c(cc1-c1cncc(C(N)=O)c1)-c1c(c(C(=O)N3[C@@H](C)CNC(=O)[C@@H]3C)nn1-c1cc(Cl)cc(Cl)c1)CC2 [Compound 8-87] | 8.14 |
| CCN(CC)C(=O)c1nn(-c2cc(Cl)cc(Cl)c2)c2c1CCc1cc(OC)c(-c3cncc(C(N)=O)c3)cc1-2 [Compound 8-35] | 3.99 |
| COc1cc2c(cc1-c1cncc(C#N)c1)-c1c(c(C(=O)N3CCCN(C)CC3)nn1-c1cc(Cl)cc(Cl)c1)CC2 [Compound 8-07A, 5-(1-(3,5-dichlorophenyl)-7-methoxy-3-(4-methyl-1,4-diazepane-1-carbonyl)-4,5-dihydro-1H-benzo[g]indazol-8-yl)nicotinonitrile] | 3040 |
| COc1cc2c(cc1-c1cncc(C(N)=O)c1)-c1c(c(C(=O)N3[C@H](C)CNC[C@@H]3C)nn1-c1cc(Cl)cc(Cl)c1)S(=O)(=O)C2 [Compound 12-05] | 15.4 |
| COc1cc2c(cc1-c1cncc(C(N)=O)c1)-c1c(c(C(=O)N(C)C(C)(C)C)nn1-c1cc(Cl)cc(Cl)c1)SC2 [Compound 3-02, N-tert-butyl-8-(5-carbamoyl-3-pyridyl)-1-(3,5-dichlorophenyl)-7-methoxy-N-methyl-5H-isothiochromeno[4,3-c]pyrazole-3-carboxamide] | 3.92 |
| COc1cc2c(cc1-c1cncc(C(N)=O)c1)-c1c(c(C(=O)N3CCC[C@H]3C)nn1-c1cc(Cl)cc(Cl)c1)CC2 [Compound 8-45] | 17.4 |
| COc1cc2c(cc1-c1cncc(C(N)=O)c1)-c1c(c(C(=O)N3CC(=O)NCC3(C)C)nn1-c1cc(Cl)cc(Cl)c1)CC2 [Compound 8-86] | 24.5 |
| COc1cc2c(cc1-c1cncc(C(N)=O)c1)-c1c(c(C(=O)N3CCC4CNCCC43)nn1-c1cc(Cl)cc(Cl)c1)CC2 (stereo not drawn) [Compound 8-23, 5-[3-(2,3,3a,4,5,6,7,7a-octahydropyrrolo[3,2-c]pyridine-1-carbonyl)-1-(3,5-dichlorophenyl)-7-methoxy-4,5-dihydrobenzo[g]indazol-8-yl]pyridine-3-carboxamide] | 457 |
| COc1cc2c(cc1-c1cncc(C(N)=O)c1)-c1c(c(C(=O)N3C4CNCC3C4)nn1-c1cc(Cl)cc(Cl)c1)CC2 [Compound 8-16B] | 769 |
| COc1cc2c(cc1-c1ccn(C)n1)-c1c(c(C(=O)N(C)C(C)(C)C)nn1-c1cc(Cl)cc(Cl)c1)C2 [Compound 5-06, N-tert-butyl-1-(3,5-dichlorophenyl)-6-methoxy-N-methyl-7-(1-methylpyrazol-3-yl)-4H-indeno[1,2-c]pyrazole-3-carboxamide] | 494 |
| COc1cc2c(cc1-c1cncc(C(N)=O)c1)-c1c(c(C(=O)N3CCNC[C@H]3C(F)(F)F)nn1-c1cc(Cl)cc(Cl)c1)CC2 [Compound 8-57, 5-[1-(3,5-dichlorophenyl)-7-methoxy-3-[(2S)-2-(trifluoromethyl)piperazine-1-carbonyl]-4,5-dihydrobenzo[g]indazol-8-yl]pyridine-3-carboxamide] | 3.89 |
| COc1cc2c(cc1-c1cncc(C(N)=O)c1)-c1c(c(C(=O)N3CCN(C)CC3(C)C)nn1-c1cc(Cl)cc(Cl)c1)CC2 [Compound 8-06] | 17.6 |
| COc1cc2c(cc1-c1ccn(C)n1)-c1c(c(C(=O)N(C)C(C)(C)C)nn1-c1cc(Cl)cc(Cl)c1)SC2 [Compound 3-04, N-tert-butyl-1-(3,5-dichlorophenyl)-7-methoxy-N-methyl-8-(1-methylpyrazol-3-yl)-5H-isothiochromeno[4,3-c]pyrazole-3-carboxamide] | 223 |
| COc1cc2c(cc1-c1cncc(C(N)=O)c1)-c1c(c(C(=O)N3CCCN(C)CC3)nn1-c1cc(Cl)cc(Cl)c1)CC2 [Compound 8-07, 5-[1-(3,5-dichlorophenyl)-7-methoxy-3-(4-methyl-1,4-diazepane-1-carbonyl)-4,5-dihydrobenzo[g]indazol-8-yl]pyridine-3-carboxamide] | 115 |
| COc1cc2c(cc1-c1ccn(C)n1)-c1c(c(C(=O)N3CCOCC3(C)C)nn1-c1cc(Cl)cc(Cl)c1)SC2 [Compound 3-03, (1-(3,5-dichlorophenyl)-7-methoxy-8-(1-methyl-1H-pyrazol-3-yl)-1,5-dihydroisothiochromeno[4,3-c]pyrazol-3-yl)(3,3-dimethylmorpholino)methanone] | 325 |
| COc1cc2c(cc1-c1cncc(C(N)=O)c1)-c1c(c(C(=O)N3CCOCC3(C)C)nn1-c1cc(Cl)cc(Cl)c1)SC2 [Compound 3-01, 5-[1-(3,5-dichlorophenyl)-3-(3,3-dimethylmorpholine-4-carbonyl)-7-methoxy-5H-isothiochromeno[4,3-c]pyrazol-8-yl]pyridine-3-carboxamide] | 6.72 |
| COc1cc2c(cc1Br)-c1c(c(C(=O)N(C)C(C)(C)C)nn1-c1cc(Cl)cc(Cl)c1)CC2 [Compound 6-02A, 8-bromo-N-tert-butyl-1-(3,5-dichlorophenyl)-7-methoxy-N-methyl-4,5-dihydrobenzo[g]indazole-3-carboxamide] | 861 |
| COc1cc2c(cc1-c1cncc(C#N)c1)-c1c(c(C(=O)N(C)C(C)(C)C)nn1-c1cc(Cl)cc(Cl)c1)CC2 [Compound 6-02B, N-tert-butyl-8-(5-cyano-3-pyridyl)-1-(3,5-dichlorophenyl)-7-methoxy-N-methyl-4,5-dihydrobenzo[g]indazole-3-carboxamide] | 31.9 |
| COc1cc2c(cc1-c1cncc(C(N)=O)c1)-c1c(c(C(=O)N3[C@@H](C)COC[C@@H]3C)nn1-c1cc(Cl)cc(Cl)c1)CC2 [Compound 8-50] | 3.43 |
| COc1cc2c(cc1-c1cncc(C(N)=O)c1)-c1c(c(C(=O)N(C)C3CC3)nn1-c1cc(Cl)cc(Cl)c1)CC2 [Compound 8-39] | 15.5 |
| COc1cc2oc3c(C(=O)N(C)C(C)(C)C)n(-c4ccsc4)nc3c2cc1-c1cncc(C(N)=O)c1 [Compound 4-04A] | 1360 |

Reference: patent US20260008783A1, “MODULATORS OF FSHR AND USES THEREOF” (Celmatix Inc., priority 2022, published 2026)
